For one series, the target named is T1, rat mGlu2 receptor (Rattus norvegicus, UniProt P31421).
T1 construct: expressed in transfected cells; membranes prepared from them
The experiment in a line: [3H]-LY354740 binding on mGlu2 transfected CHO cell membranes. To be noted: inhibition of 10 nM [3H]-LY354740 binding, membranes of mGlu2 transfected CHO cells, room temperature, 1 hour; read-out: mGluR2 Ki. The text has this:
[^3H]-LY354740 Binding on mGlu2 Transfected CHO Cell Membranes
Transfection and cell culture: cDNA encoding the rat mGlu2 receptor protein in pBluescript II was subcloned into the eukaryotic expression vector pcDNA I-amp from Invitrogen (NV Leek, The Netherlands). This vector construct (pcD1mGR2) was co-transfected with a psvNeo plasmid encoding the gene for neomycin resistance, into CHO cells by a modified calcium phosphate method described by Chen & Okayama (1988). The cells were maintained in Dulbecco's Modified Eagle medium with reduced L-glutamine (2 mM final concentration) and 10% dialyzed foetal calf serum from Gibco BRL (Basel, Switzerland). Selection was made in the presence of G-418 (1000 μg/ml final). Clones were identified by reverse transcription of 5 μg total RNA, follow by PCR using mGlu2 receptor specific primers 5′-[…]-3′ (SEQ ID NO: 1) and 5′-[…]-3′ (SEQ ID NO:2) in 60 mM Tris HCl (pH 10), 15 mM (NH4)2SO4, 2 mM MgCl2, 25 units/ml Taq Polymerase with 30 cycles annealing at 60° C. for 1 min., extension at 72° C. for 30 s, and 1 min. 95° C. denaturation.
Membrane preparation: Cells, cultured as above, were harvested and washed three times with cold PBS and frozen at −80° C. The pellet was resuspended in cold 20 mM HEPES-NaOH buffer containing 10 mM EDTA (pH 7.4), and homogenized with a polytron (Kinematica, AG, Littau, Switzerland) for 10 s at 10 000 rpm. After centrifugation for 30 min. at 4° C., the pellet was washed once with the same buffer, and once with cold 20 mM HEPES-NaOH buffer containing 0.1 mM EDTA, (pH 7.4). Protein content was measured using the Pierce method (Socochim, Lausanne, Switzerland) using bovine serum albumin as standard.
[^3H]-LY354740 binding: After thawing, the membranes were resuspended in cold 50 mM Tris-HCl buffer containing 2 mM MgCl2 and 2 mM CaCl2, (pH 7) (binding buffer). The final concentration of the membranes in the assays was 25 μg protein/ml. Inhibition experiments were performed with membranes incubated with 10 nM [^3H]-LY354740 at room temperature, for 1 hour, in the presence of various concentrations of the compound to be tested. Following the incubations, membranes were filtered onto Whatmann GF/C glass fiber filters and washed 5 times with cold binding buffer. Non specific binding was measured in the presence of 10 μM DCG IV. After transfer of the filters into plastic vials containing 10 ml of Ultima-gold scintillation fluid (Packard, Zürich, Switzerland), the radioactivity was measured by liquid scintillation in a Tri-Carb 2500 TR counter (Packard, Zürich, Switzerland).
Data analysis: The inhibition curves were fitted with a four parameter logistic equation giving IC50 values, and Hill coefficients.

Data on 3 molecules can be found in patent publication US7514443B2, “Substituted pyrazolo[1,5-a]pyrimidines as inhibitors of metabotropic glutamate receptors” (Hoffmann-La Roche Inc., priority 2003, dated 2009).

pKi: −log10 of the molar value.

T1 sequence (P31421 19-872): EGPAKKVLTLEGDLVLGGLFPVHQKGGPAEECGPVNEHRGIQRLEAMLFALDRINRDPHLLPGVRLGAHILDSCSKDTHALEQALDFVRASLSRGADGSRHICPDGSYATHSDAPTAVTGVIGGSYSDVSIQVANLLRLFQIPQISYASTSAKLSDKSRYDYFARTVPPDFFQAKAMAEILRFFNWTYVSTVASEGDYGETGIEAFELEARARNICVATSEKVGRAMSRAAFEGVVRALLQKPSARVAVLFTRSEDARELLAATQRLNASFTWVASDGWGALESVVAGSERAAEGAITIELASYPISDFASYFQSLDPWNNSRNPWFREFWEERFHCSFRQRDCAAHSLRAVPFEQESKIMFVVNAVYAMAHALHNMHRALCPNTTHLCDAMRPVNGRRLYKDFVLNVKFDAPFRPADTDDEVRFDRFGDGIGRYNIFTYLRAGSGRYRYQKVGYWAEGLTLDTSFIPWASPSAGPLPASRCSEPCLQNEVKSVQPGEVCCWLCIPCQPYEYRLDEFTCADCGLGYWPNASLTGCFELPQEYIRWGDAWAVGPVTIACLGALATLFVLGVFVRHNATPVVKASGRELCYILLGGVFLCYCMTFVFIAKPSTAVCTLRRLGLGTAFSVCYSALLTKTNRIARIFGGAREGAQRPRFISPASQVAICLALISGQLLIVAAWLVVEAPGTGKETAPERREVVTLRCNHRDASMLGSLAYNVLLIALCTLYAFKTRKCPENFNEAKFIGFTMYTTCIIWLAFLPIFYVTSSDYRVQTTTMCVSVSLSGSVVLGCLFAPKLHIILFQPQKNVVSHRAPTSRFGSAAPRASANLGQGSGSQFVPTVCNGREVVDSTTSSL

The molecule `Cc1cc(-c2cnn3c(C(F)(F)F)cc(-c4ccc(C(F)(F)F)c(F)c4)nc23)ccn1` [Example 4.35, 5-(3-Fluoro-4-trifluoromethyl-phenyl)-3-(2-methyl-pyridin-4-yl)-7-trifluoromethyl-pyrazolo[1,5-a]pyrimidine] showed a melting point of 250 °C. For the same molecule, the pKi on rat mGlu2 receptor is 7.35.

Regarding `Cc1cc(-c2cc(C(F)(F)F)n3nc(CC#N)c(C#N)c3n2)ccc1Cl` [Example 3.2, 5-(4-Chloro-3-methyl-phenyl)-2-cyanomethyl-7-trifluoromethyl-pyrazolo[1,5-a]pyrimidine-3-carbonitrile], the melting point stood at 238 °C. Further, on rat mGlu2 receptor, the pKi is 7.12.

Take `N#Cc1cnn2c(C(F)(F)F)cc(-c3ccc(F)c(C(F)(F)F)c3)nc12` [Example 1.13, 5-(4-Fluoro-3-trifluoromethyl-phenyl)-7-trifluoromethyl-pyrazolo[1,5-a]pyrimidine-3-carbonitrile]: the melting point is 204 °C. At rat mGlu2 receptor, the pKi was 7.37.
